The text below walks through data of PubChem BioAssay (NCI).

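Following 48 hours of exposure in 96-well plates, responses at five concentrations were used to interpolate endpoints linearly. GI50 marks 50% less growth. TGI: total growth inhibition.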

What all share (assay): growth of human tumour cells (NCI), 48 h
The test system of test [1] is SF-268 CNS.
The test system of test [2] is RPMI-8226 leukemia.
The subject of test [3] is MOLT-4 leukemia.
Test [4] relates to SF-539 CNS.
Test [5] deals with KM12 colon.
For test [6], the system named is A549 NSCLC.
In test [7] the test system is SNB-75 CNS.
Test [8] relates to PC-3 prostate.
Test [9] deals with RXF 393 renal.
The test system of test [10] is NCI-H23 lung.

On to `Cc1cc2nc3c4ccc(Br)cc4n(CCN(C)C)c3nc2cc1C`, for which the GI50 in [1] is 2 µM; in test [2] it was 2.16 µM; in [3], 0.412 µM; in test [4], 1.6 µM; in [5], 1.54 µM; in test [6], 1.16 µM. Also, the GI50 in test [7] was 1.82 µM; in test [8], 1.51 µM; in test [9], 1.31 µM; in test [10], 1.5 µM. Further, the TGI was 6.24 µM in [1]; 5.93 µM in test [2]; 5.62 µM in [3]; 3.17 µM in [4]; 4.66 µM in test [5]; 10.3 µM in test [6]. Further, the TGI was determined as 5.19 µM in test [7], 4.22 µM in test [8], 3.01 µM in [9] and 3.47 µM in test [10].
Take `O=C(/C=C/c1ccco1)c1ccc(Nc2nc(Nc3ccc(F)cc3)nc(Nc3ccc(F)cc3)n2)cc1`: the GI50 in test [1] is 7.49 µM; in test [2], 8.99 µM; in test [3], 11.9 µM; in [4], 24.8 µM; in test [5] it was 13.3 µM; in [6], 19.8 µM. In addition, the GI50 in [7] is 30.7 µM; in [8] it was 6.83 µM; in test [9], 41.4 µM; in test [10] it was 16.4 µM. The TGI in test [1] is 30.8 µM; in test [2] it was > 100 µM; in test [3], 48.8 µM; in test [4], 63.5 µM; in test [5] it was > 100 µM; in test [6], > 100 µM. Also, the TGI in test [7] is 91.7 µM; in [8], 21.9 µM; in test [9], > 100 µM; in test [10], 37 µM.
`COc1ccc(C(=O)c2cc3c(N)c(C(=O)Nc4cccc(OC)c4)sc3nc2C)cc1`: the GI50 in test [1] is 1.75 µM; in test [2], 0.39 µM; in test [3], 0.745 µM; in [4], 0.372 µM; in test [5] it was 0.568 µM; in test [6], 0.753 µM. Besides, the GI50 is 0.541 µM in test [7], 0.439 µM in test [8], 0.323 µM in test [9] and 1.7 µM in [10]. For the same molecule, the TGI in test [1] was > 100 µM; in test [3] it was > 100 µM; in test [4], 2.59 µM; in test [5], > 100 µM; in test [6], > 100 µM; in [7], > 100 µM. The TGI in test [8] and in test [10] was > 100 µM each time.
For the molecule `Cc1ccc(S(=O)(=O)NC(CO)C(=O)O)cc1` (stereo unspecified), the TGI in [1], in [2], in test [3], in [4], in test [5] and in test [6] was > 100 µM each time. Also, the TGI in test [7], in test [8], in [9] and in [10] was > 100 µM in each case.
On to `COc1cc2c(cc1OCCCOc1ccc(-c3nc4ccc(N5CCN(C)CC5)cc4[nH]3)cc1)N=C[C@@H]1CCCN1C2=O`, for which the GI50 in [1], in test [2], in test [3], in test [4], in [5] and in [6] was < 0.01 µM in each case. Besides, the GI50 in test [7], in [8], in test [9] and in [10] was < 0.01 µM each time. Also, the TGI in test [2] was < 0.01 µM; in [3] it was < 0.01 µM; in test [4], < 0.01 µM; in test [6] it was < 0.0222 µM; in [7] it was 11.8 µM; in test [8], < 0.01 µM. Also, the TGI in test [9] and in test [10] was < 0.01 µM in each case.
